The test system of one experiment is fungal inoculum. Put plainly: organism not typed. Format: cell-based. Conditions: read-out: % growth inhibition.
Experiment [1] relates to Magnaporthe grisea (Pyricularia oryzae). Put plainly: whole plant or invertebrate. Type of experiment: in vivo, Magnaporthe grisea (Pyricularia oryzae) on M201 rice plants. Conditions: Pyricularia oryzae, 144 h, read-out: % Control RB.
Experiment [2] relates to Thanatephorus cucumeris (Rhizoctonia solani). Put plainly: In vivo test b) Rice Sheath Blight (RSB), 24 hour preapplication protectant, % control. Conditions: for pest or weed control at 200 ppm: read-out: % Control RSB. As for the experimental part:
Compounds were tested at 200 ppm as a twenty-four hour preapplication protectant test prior to inoculation.
b) Rice Sheath Blight (RSB)
Thanatephorus cucumeris (Rhizoctonia solani) mycelia were grown for six days in potato dextrose broth in shake culture. Drained mycelial mats were blended with an approximately equal weight of rice flour and five parts water. This slurry was dispensed onto the soil surface of pots containing rice seedlings previously treated with experimental compounds. The plants were placed in a mist chamber at 25°-28° C. for 48 hours. Following two more days at 25° C. and 70-90% relative humidity the plants were evaluated for percent disease control compared to check plants.

The subject of the next experiment is fungal mycelium. Nature of the experiment: organism not typed. Format: cell-based. Conditions: read-out: % growth inhibition.
Another experiment deals with Candida albicans. Nature of the experiment: Activity against Candida albicans in microtiter plates, % control of growth. Format: cell-based. As for the experimental part: The activity against Candida albicans was determined using the following test protocol.
Conidia and mycelium from the Candida albicans culture maintained on potato dextrose agar plates were lightly scraped off into yeast extract-dextrose broth (YDB) so that mostly conidia was used as inoculum. The conidial suspsension was strained through a double layer of cheesecloth to remove mycelial clumps. The inoculum mixture was placed in microtiter plates using a 12-tipped pipet. 175 microliters were placed in each well of the microliter plates and the plates were placed in the refrigerator overnight. There were two replications.
The compounds to be tested were dissolved in 1:1 acetone:methanol and 100 ppm of the compound solution were placed in a well of the prepared microtiter plates.
The microtiter plates were incubated for 7 days at room temperature after addition of the compounds. Percent control was visually estimated using a microtiter plate reading mirror. Readings were made at 1, 2, 3, and/or 7 days after treatment.

Where [3] appears, read: 24 h, 1 day after treatment, read-out: % control of growth +1.
Where [4] appears, read: 48 h, 2 days after treatment, read-out: % control of growth +2.
Setting [5] is: 72 h, 3 days after treatment, read-out: % control of growth +3.

Each structure is given as a SMILES string. Read-outs that look alike come from different tables or passages of the source.

As to `CC#CCN1N=C(c2ccc(Cl)cc2)CCC1=O` [Compound 1], in the experiment on fungal inoculum, the inhibition – broadly, the drop in the measured response relative to a control, in per cent – at 5 ppm was 92.7%. For the same molecule, the pest or weed control at 200 ppm worked out at 90% in experiment [1] and 0% in experiment [2] (200 ppm, protectant).
On to `COc1ccc(C2=NN(CCCO)C(=O)CC2)cc1` [Compound 2], for which the inhibition at 100 ppm in the experiment with fungal inoculum came to 0%. Also, the pest or weed control at 200 ppm in experiment [1] was 0%; in experiment [2] (200 ppm, protectant) it was 0%.
Regarding `CCC(O)CN1N=C(c2ccc(Cl)c(Cl)c2)CCC1=O` (stereo not drawn) [Compound 3], in the experiment on fungal inoculum, the inhibition at 100 ppm was 53.6%. The pest or weed control at 200 ppm in experiment [1] is 0%; in experiment [2] (200 ppm, protectant), 0%.
In the case of `CCC(O)CN1N=C(c2ccc(Cl)cc2)CCC1=O` (stereo not drawn) [Compound 4], the inhibition at 100 ppm with fungal inoculum was 26.7%. Moreover, the pest or weed control at 200 ppm in experiment [1] is 0%; in experiment [2] (200 ppm, protectant) it was 0%.
With `O=C1CCC(c2ccc(Cl)c(Cl)c2)=NN1CCCO` [Compound 5], in the experiment on fungal inoculum, the inhibition at 100 ppm was determined as 75%. Further, the pest or weed control at 200 ppm came out at 0% in experiment [1] and 50% in experiment [2] (200 ppm, protectant).
With `C#CCN1N=C(c2ccc(Cl)cc2)CCC1=O` [Compound 6, 6-(4-chlorophenyl)-2-propargyl-4,5-dihydropyridazinone], in the experiment with fungal inoculum, the inhibition at 100 ppm was 91.5%. For the same molecule, the pest or weed control at 200 ppm in experiment [1] turned out to be 0%; in experiment [2] (200 ppm, protectant), 0%.
With `CCCCN1N=C(c2ccc(Cl)cc2)CCC1=O` [Compound 7], the inhibition at 100 ppm in the experiment on fungal inoculum came out at 94.4%. Also, the pest or weed control at 200 ppm in experiment [1] came out at 0%; in experiment [2] (200 ppm, protectant), 0%.
On to `CC=CCN1N=C(c2ccc(Cl)cc2)CCC1=O` [Compound 8], for which, in the experiment on fungal inoculum, the inhibition at 100 ppm was 96.2%. For the same molecule, the pest or weed control at 200 ppm was found to be 0% in experiment [1] and 0% in experiment [2] (200 ppm, protectant).
In the case of `CC#CCN1N=C(c2ccccc2)CCC1=O` [Compound 9], the inhibition at 100 ppm with fungal inoculum is 94.4%. The pest or weed control at 200 ppm in experiment [1] turned out to be 0%; in experiment [2] (200 ppm, protectant), 0%.
Regarding `O=C1CCC(c2ccc(Cl)cc2)=NN1Cc1ccccc1` [Compound 10], the inhibition at 100 ppm in the experiment with fungal inoculum is 100%. In experiment [2], the pest or weed control at 200 ppm is 80%.
As for `CC#CCN1N=C(c2ccc(OC)cc2)CCC1=O` [Compound 11, 6-(4-methoxyphenyl)-2-(2'-butynyl)-4,5-dihydropyridazinone], the inhibition at 10 ppm in the experiment with fungal inoculum amounted to 87.7%. Besides, the pest or weed control at 200 ppm is 0% in experiment [1] and 0% in experiment [2] (200 ppm, protectant).
As for `CC#CCN1N=C(c2ccc(F)cc2)CCC1=O` [Compound 13], the inhibition at 10 ppm in the experiment on fungal inoculum turned out to be 87%. The pest or weed control at 200 ppm in experiment [1] is 50%; in experiment [2] (200 ppm, protectant) it was 50%.
In the case of `CC(C)(C)N1N=C(c2ccc(Cl)cc2)CCC1=O` [Compound 15, 6-(4-chlorophenyl)-4,5-dihydro-2-t-butylpyridazinone], in the experiment with fungal inoculum, the inhibition at 50 ppm is 37.1%. In addition, the pest or weed control at 200 ppm in experiment [1] stood at 0%; in experiment [2] (200 ppm, protectant) it was 50%.
For the molecule `O=C1CCC(c2ccc(Cl)cc2)=NN1C(=O)c1ccccc1` [Compound 16], the inhibition at 50 ppm in the experiment on fungal inoculum came to 12.7%. The pest or weed control at 200 ppm in experiment [1] came to 0%; in experiment [2] (200 ppm, protectant) it was 50%.
In the case of `O=C1CCC(c2ccc(Cl)cc2)=NN1CC#Cc1ccccc1` [Compound 17], the inhibition at 25 ppm with fungal inoculum turned out to be 91.9%. Also, the pest or weed control at 200 ppm came out at 0% in experiment [1] and 80% in experiment [2] (200 ppm, protectant).
As to `CC#CCN1N=C(c2ccc(C)cc2)CCC1=O` [Compound 18], the inhibition at 5 ppm in the experiment on fungal inoculum came to 88.4%. Moreover, the pest or weed control at 200 ppm was found to be 0% in experiment [1] and 0% in experiment [2] (200 ppm, protectant).
Turning to `CC#CCN1N=C(c2ccc(Cl)cc2Cl)CCC1=O` [Compound 19], the inhibition at 100 ppm with fungal inoculum was found to be 96.8%. The pest or weed control at 200 ppm in experiment [1] is 50%; in experiment [2] (200 ppm, protectant), 0%.
As for `CC#CCN1N=C(c2ccc(OC)c(F)c2)CCC1=O` [Compound 20], in the experiment with fungal inoculum, the inhibition at 10 ppm was 100%. In addition, the pest or weed control at 200 ppm amounted to 0% in experiment [1] and 0% in experiment [2] (200 ppm, protectant).
With `CC#CCCN1N=C(c2ccc(Cl)cc2)CCC1=O` [Compound 21], the inhibition at 100 ppm in the experiment on fungal inoculum worked out at 45.8%. Besides, the pest or weed control at 200 ppm in experiment [1] stood at 0%; in experiment [2] (200 ppm, protectant), 0%.
`C#CC=CCN1N=C(c2ccc(Cl)cc2)CCC1=O` [Compound 84]: in the experiment on fungal inoculum, the inhibition at 50 ppm turned out to be 75.8%. Further, the pest or weed control at 200 ppm in experiment [1] came to 95%; in experiment [2] (200 ppm, protectant), 0%.
In the case of `C=CC#CCN1N=C(c2ccc(Cl)c(F)c2)CCC1=O` [Compound 100], the inhibition at 0.16 ppm in the experiment on fungal mycelium was found to be 100%. In addition, the pest or weed control at 200 ppm in experiment [1] is 100%; in experiment [2] (200 ppm, protectant), 0%. Further, the inhibition of growth at 100 ppm in the experiment on Candida albicans (setting [3]), in the experiment with Candida albicans (setting [4]) and in the experiment on Candida albicans (setting [5]) was 100% each time.
Take `CC#CCn1nc(-c2ccc(Cl)cc2)ccc1=O` [Compound 108]: in the experiment with fungal inoculum, the inhibition at 5 ppm turned out to be 100%. Besides, the pest or weed control at 200 ppm in experiment [1] was 95%; in experiment [2] (200 ppm, protectant), 50%.
On to `C=CC#CCn1nc(-c2ccc(Cl)cc2)ccc1=O` [Compound 119], for which, in the experiment on fungal inoculum, the inhibition at 5 ppm was 99.3%. Moreover, the figures for the pest or weed control at 100 ppm in experiment [1] and in experiment [2] (protectant) were 95% and 0%, respectively. Further, the inhibition of growth at 100 ppm came to 100% in the experiment with Candida albicans (setting [3]); 100% in the experiment with Candida albicans (setting [4]); 100% with Candida albicans (setting [5]); 100% in the experiment on Candida albicans (168 h, 7 days after treatment, read-out: % control of growth +7).
As to `C=CC#CCn1nc(-c2ccc(Cl)c(F)c2)ccc1=O` [Compound 128], the inhibition at 0.156 ppm in the experiment with fungal mycelium stood at 100%. Also, the pest or weed control at 200 ppm in experiment [1] was 95%; in experiment [2] (200 ppm, protectant), 0%. Besides, the inhibition of growth at 100 ppm in the experiment with Candida albicans (setting [3]), in the experiment with Candida albicans (setting [4]) and in the experiment with Candida albicans (setting [5]) was 100% in each case.
Turning to `CCC#CCn1nc(-c2ccc(F)c(Cl)c2)ccc1=O` [Compound 129], the inhibition at 1 ppm in the experiment on fungal mycelium is 100%. Moreover, the pest or weed control at 200 ppm was determined as 0% in experiment [1] and 0% in experiment [2] (200 ppm, protectant).
Turning to `CC#CCN1N=C(c2cccnc2)CCC1=O` [Compound 132], the inhibition at 200 ppm with fungal mycelium was found to be 91.8%. Further, the pest or weed control at 200 ppm in experiment [1] came out at 0%; in experiment [2] (200 ppm, protectant) it was 0%.
`CCC#CCn1cc(-c2ccc(Cl)cc2)ccc1=O` [Compound 145, 5-(4-chlorophenyl)-1-(2-pentyn-1-yl)-2-pyridinone]: the inhibition at 1 ppm with fungal inoculum was 96%. In addition, the pest or weed control at 200 ppm in experiment [1] was 95%. Moreover, in experiment [2] (protectant), the pest or weed control at 100 ppm stood at 0%.
As for `CCC#CCn1cc(-c2ccc(Cl)cc2)cnc1=O` [Compound 150], the inhibition at 50 ppm in the experiment with fungal inoculum came out at 48.2%. Also, the pest or weed control at 200 ppm in experiment [1] was 99%; in experiment [2] (200 ppm, protectant), 95%.
As to `CCC#CCn1nc(-c2ccc(Cl)cc2)c2ccccc2c1=O` [Compound 154], the inhibition at 10 ppm in the experiment on fungal mycelium is 16%. The pest or weed control at 200 ppm in experiment [1] was found to be 50%; in experiment [2] (200 ppm, protectant) it was 0%.
As to `CCC#CCN1N=C2c3ccc(Cl)cc3C(C)C2CC1=O` (stereo not drawn) [Compound 155], the inhibition at 10 ppm in the experiment with fungal mycelium was found to be 92%. Moreover, the pest or weed control at 200 ppm is 100% in experiment [1] and 90% in experiment [2] (200 ppm, protectant).
Take `C=CC#CCN1N=C2c3ccc(Cl)cc3CC2CC1=O` (stereo not drawn) [Compound 156, 7-chloro-2,4,4a,5-tetrahydro-2-(2-pentyn-4-ene-1-yl)-indeno [1,2-c]-pyridazin-3-one]: in the experiment with fungal mycelium, the inhibition at 1 ppm stood at 100%. Further, the pest or weed control at 200 ppm is 100% in experiment [1] and 95% in experiment [2] (200 ppm, protectant). In addition, the inhibition of growth at 100 ppm in the experiment on Candida albicans (setting [3]), in the experiment with Candida albicans (setting [4]) and in the experiment on Candida albicans (setting [5]) was 100% in each case.
On to `CCC#CCN1N=C(c2ccc(Cl)cc2)CC=C1Cl` [Compound 157, 6-(4-chlorophenyl)-3-chloro-2-(2'-pentyn-1-yl)-2,5-dihydropyridazine], for which the inhibition at 10 ppm in the experiment on fungal mycelium was found to be 100%. For the same molecule, the pest or weed control at 200 ppm worked out at 10% in experiment [1] and 0% in experiment [2] (200 ppm, protectant).
For the molecule `CCC#CCN1N=C(c2ccc(Cl)cc2)CC=C1n1cncn1` [Compound 159], the inhibition at 1 ppm in the experiment with fungal mycelium was determined as 100%. In addition, the pest or weed control at 200 ppm amounted to 0% in experiment [1] and 0% in experiment [2] (200 ppm, protectant).
On to `CCC#CCN1N=C(c2ccc(Cl)cc2)CC=C1Br` [Compound 160], for which, in the experiment on fungal mycelium, the inhibition at 1 ppm was found to be 100%. Moreover, the pest or weed control at 200 ppm in experiment [1] was found to be 0%; in experiment [2] (200 ppm, protectant) it was 95%.
On to `CCC#CCN1N=C(c2ccc(Cl)cc2)OCC1=O` [Compound 161, 2-(4-chlorophenyl)-4-(2-pentyn-1-yl)-4H,6H-1,3,4-oxadiazin-5-one], for which, in the experiment with fungal mycelium, the inhibition at 1 ppm came to 75.9%. The pest or weed control at 200 ppm in experiment [1] amounted to 99%; in experiment [2] (200 ppm, protectant) it was 0%. For the same molecule, the inhibition of growth at 100 ppm in the experiment on Candida albicans (setting [3]), in the experiment on Candida albicans (setting [4]) and in the experiment on Candida albicans (setting [5]) was 100% throughout.
